For orientation: EC50 means the concentration needed to bring the measured effect to its halfway point.

In patent publication EP4790048A1, “S1PR4 REGULATOR COMPOUND FOR AUTOIMMUNE DISEASE TREATMENT AND APPLICATION THEREOF” (Shengyuan Zetong (Shanghai) Pharmaceutical Co., Ltd, priority 2023, dated 2025) one finds EC50 data, which are given here for 27 compounds.

Test [1] addresses T1, hS1P1 (Homo sapiens, UniProt P21453).
T1 construct: expressed in transfected cells; host or cells: CHO
Put plainly: Tango β-arrestin recruitment luciferase assay, Tango-hS1P1-CHO. It counts as cell-based. The conditions noted are these: β-arrestin recruitment; 20 h drug treatment; top 45 µM, 9 serial 5-fold dilutions; positive control 1 µM BAF-312; read-out: Tango-hS1P1-CHO EC50. The text has this: (§1) The Tango assay detects ligand-dependent GPCR activity through the interaction between β-arrestin and GPCRs. […] The NTEV fragment and the tetracycline transactivator (tTA), an artificial transcription factor, are fused at the C-terminus of the GPCR, while the CTEV fragment is fused to human β-arrestin 2. To enhance the stability of the interaction between GPCR and β-arrestin, a short sequence from the C-terminus of the human arginine vasopressin receptor 2 (V2 tail) is inserted between the GPCR and NTEV. The V2 tail contains multiple GRK phosphorylation sites, which strengthen β-arrestin binding upon phosphorylation. The CTEV fragment carries the stabile point mutation S219P and is truncated at residue 221 to remove the autoinhibitory C-terminal tail. Meanwhile, β-arrestin 2 is truncated to lack the entire C-terminal tail (residues 383-410 deleted). This truncation confers robust stimulus-dependent receptor desensitization, thereby improving detection sensitivity compared with wild-type β-arrestin 2. The UAS reporter construct consists of upstream activating sequence (UAS) elements, a minimal CMV promoter, and a tTA-dependent luciferase reporter gene. Therefore, constructing Tango cells requires the co-transfection of the above three plasmids into host cells. Upon GPCR activation and β-arrestin recruitment, the TEV enzyme at the β-arrestin terminus cleaves tTA from the GPCR C-terminus. The released tTA initiates tTA-dependent luciferase transcription, and compound activity is ultimately determined by measuring luminescence intensity.
(§2) • 1) Tango cell line from was digested from the culture dish respectively. After cell counting, the cells were plated at a density of 10,000 cells per well with […] into a white opaque 96-well plate (add 60 µL D'Hanks to the surrounding wells), and incubated overnight (20 h) in a 5% CO2 incubator at 37°C. The cell density will reach approximately 90% the next day. • 2) After 20 h, 30 µL of serially diluted compound solution was added to each well. The control group was supplemented with 30 µL F12K complete medium. Each group had three replicate wells. • 3) Samples were collected after 20 h of drug treatment.
(§3) (All compounds were tested at a final concentration of 45 µM, with 9 serial dilutions at 5-fold intervals. 1 µM BAF-312 was used as the positive control for S1PR1, and 25 µM BAF-312 was used as the positive control for S1PR4.
On the technique in general: Arrestin recruitment assays detect the binding of arrestin to an activated receptor.

In test [2] the target is T2, hS1P4 (Homo sapiens, UniProt O95977).
T2 construct: expressed in transfected cells; host or cells: CHO
T2 sequence (O95977 1-384): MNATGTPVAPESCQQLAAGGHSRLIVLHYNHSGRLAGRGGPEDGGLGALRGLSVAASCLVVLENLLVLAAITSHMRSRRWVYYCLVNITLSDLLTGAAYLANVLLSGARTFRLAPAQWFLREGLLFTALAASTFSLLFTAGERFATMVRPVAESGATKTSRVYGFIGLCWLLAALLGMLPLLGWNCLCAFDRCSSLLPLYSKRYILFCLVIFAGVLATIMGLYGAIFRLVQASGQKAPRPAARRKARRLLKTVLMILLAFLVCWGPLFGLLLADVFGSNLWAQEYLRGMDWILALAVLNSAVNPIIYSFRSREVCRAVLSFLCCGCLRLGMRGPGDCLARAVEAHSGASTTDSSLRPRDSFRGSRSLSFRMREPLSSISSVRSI
Put plainly: Tango β-arrestin recruitment luciferase assay, Tango-hS1P4-CHO. It counts as cell-based. The conditions noted are these: β-arrestin recruitment; 20 h drug treatment; top 45 µM, 9 serial 5-fold dilutions; positive control 25 µM BAF-312; read-out: Tango-hS1P4-CHO EC50.
Excerpt: as §1, §2, §3

Molecules are shown by their SMILES.

T1 sequence (P21453 whole entry): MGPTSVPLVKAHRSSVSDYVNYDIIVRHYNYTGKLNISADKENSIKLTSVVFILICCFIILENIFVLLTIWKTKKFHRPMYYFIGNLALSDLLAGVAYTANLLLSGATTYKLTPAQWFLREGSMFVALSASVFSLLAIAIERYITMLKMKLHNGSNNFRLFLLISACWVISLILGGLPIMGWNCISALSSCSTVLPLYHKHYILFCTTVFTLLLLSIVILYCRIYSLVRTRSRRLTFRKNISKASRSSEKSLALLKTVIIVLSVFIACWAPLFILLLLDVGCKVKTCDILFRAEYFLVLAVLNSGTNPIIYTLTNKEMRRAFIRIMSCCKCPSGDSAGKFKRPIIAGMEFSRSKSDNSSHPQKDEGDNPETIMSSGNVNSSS

Consider `C/C(=N\OCc1ccc(C2CCCCC2)cc1)c1ccc(CN2CC(C(=O)O)C2)cc1` [Compound 1], for which the values for the EC50 in test [1] and in test [2] were 0.699 µM and 2970 nM, respectively. Taken in the same sequence, the figures for `CCc1cc(/C(C)=N/OCc2ccc(C3CCCCC3)cc2)ccc1CN1CC(C(=O)O)C1` [Compound 3] were 0.578 µM and 2160 nM. Regarding `C/C(=N\OCc1ccc(C2CCCCC2)c(C(F)(F)F)c1)c1ccc(CN2CCCC(C(=O)O)C2)cc1` (stereo not drawn) [Compound 7], the concentration for a half-maximal effect (EC50) in test [1] was 0.508 µM; in test [2], 2500 nM.

Take `C/C(=N\OCc1ccc(C2CCCCC2)c(C(F)(F)F)c1)c1ccc(CNC2CCCC(C(=O)O)C2)cc1` (stereo not drawn) [Compound 9, (E)-3-((4-((1-((4-cyclohexyl-3-(trifluoromethyl)benzyl)oxy)imino)ethyl)benzyl)amino)cyclohexane-1-carboxylic acid]: the half-maximal effective concentration (EC50) in test [1] turned out to be 0.455 µM; in test [2] it was 2350 nM. Regarding `CCc1cc(/C(C)=N/OCc2ccc(C)c(C(F)(F)F)c2)ccc1CN1CC(C(=O)O)C1` [Compound 14, (E)-1-(2-ethyl-4-(1-((4-methyl-3-(trifluoromethyl)benzyl)oxy)imino)ethyl)azetidine-3-carboxylic acid], the EC50 amounted to 5.99 µM in test [1] and 3660 nM in test [2]. Turning to `CCc1cc(/C(C)=N/OCc2ccc(-c3ccccc3)c(C)c2)ccc1CN1CCCC(C(=O)O)C1` (stereo not drawn) [Compound 33], in test [1], the concentration giving a half-maximal response (EC50) came to 0.454 µM. Take `CCc1cc(/C(C)=N/OCc2ccc(-c3ccc(F)cc3)c(C)c2)ccc1CN1CC[C@H](C(=O)O)C1` [Compound 34, (S, E)-1-(2-ethyl-4-(1-(((4'-fluoro-2-methyl-[1,1'-biphenyl]-4-yl)methoxy)imino)ethyl)benzyl)pyrrolidine-3-carboxylic acid]: the concentration for a half-maximal effect (EC50) in test [1] worked out at 0.0869 µM; in test [2], 2.4 nM. Regarding `CCc1cc(/C(C)=N/OCc2ccc(-c3ccccc3)c(F)c2)ccc1CN1CC[C@H](C(=O)O)C1` [Compound 35, (S, E)-1-(2-ethyl-4-(1-(((2-fluoro-[1,1'-biphenyl]-4-yl)methoxy)imino)ethyl)benzyl)pyrrolidine-3-carboxylic acid], the values for the EC50 in test [1] and in test [2] were 0.104 µM and 3.79 nM, respectively.

As to `CCc1cc(/C(C)=N/OCc2ccc(-c3ccoc3)c(C)c2)ccc1CN1CC[C@H](C(=O)O)C1` [Compound 36, (S, E)-1-(2-ethyl-4-(1-(((4-(furan-3-yl)-3-methylbenzyl)oxy)imino)ethyl)benzyl)pyrrolidine-3-carboxylic acid], the concentration for a half-maximal effect (EC50) in test [1] worked out at 0.103 µM; in test [2] it was 1.67 nM. Taken in the same sequence, the figures for `CCc1cc(/C(C)=N/OCc2ccc(-c3ccncc3)c(C)c2)ccc1CN1CC[C@H](C(=O)O)C1` [Compound 37, (S, E)-1-(2-ethyl-4-(1-(((3-methyl-4-(pyridin-4-yl)benzyl)oxy)imino)ethyl)benzyl)pyrrolidine-3-carboxylic acid] were 0.644 µM and 15.6 nM. For the compound `CCc1cc(/C(C)=N/OCc2ccc(-c3cnn(C(C)(C)C)c3)c(C)c2)ccc1CN1CC[C@H](C(=O)O)C1` [Compound 39], the concentration for a half-maximal effect (EC50) in test [1] was > 10 µM. On to `CCc1cc(/C(C)=N/OCc2ccc(-c3cnn(C)c3)c(C)c2)ccc1CN1CC[C@H](C(=O)O)C1` [Compound 40], for which, in test [1], the EC50 was > 10 µM.

Consider `CCc1cc(/C(C)=N/OCc2ccc(-c3cncn3C)c(C)c2)ccc1CN1CC[C@H](C(=O)O)C1` [Compound 44], for which the EC50 in test [1] is > 10 µM. `CCc1cc(/C(C)=N/OCc2ccc(-c3c(C)noc3C)c(C)c2)ccc1CN1CC[C@H](C(=O)O)C1` [Compound 45]: the EC50 in test [1] was > 10 µM. For `CCc1cc(/C(C)=N/OCc2ccc(-c3cnn(C)c3)cc2)ccc1CN1CC[C@H](C(=O)O)C1` [Compound 55], the half-maximal effective concentration (EC50) is > 10 µM in test [1] and 269 nM in test [2]. For the compound `CCc1cc(/C(C)=N/OCc2ccc(-c3ccc(F)nc3)cc2F)ccc1CN1CC[C@H](C(=O)O)C1` [Compound 65], the concentration giving a half-maximal response (EC50) in test [1] was > 10 µM. As to `CCc1cc(/C(C)=N/OCc2ccc(-c3ccc(F)nc3)nc2)ccc1CN1CC[C@H](C(=O)O)C1` [Compound 66, (S, E)-1-(2-ethyl-4-(1-(((6'-fluoro-[2,3'-bipyridin]-5-yl)methoxy)imino)ethyl)benzyl)pyrrolidine-3-carboxylic acid], the 50% effective concentration (EC50) in test [1] is > 10 µM. As for `CCc1cc(/C(C)=N/OCc2ccc(-c3cncnc3)cc2)ccc1CN1CC[C@H](C(=O)O)C1` [Compound 70, (S, E)-1-(2-ethyl-4-(1-(((4-(pyrimidin-5-yl)benzyl)oxy)imino)ethyl)benzyl)pyrrolidine-3-carboxylic acid], the 50% effective concentration (EC50) in test [1] is > 10 µM. Regarding `CCc1cc(/C(C)=N/OCc2ccc(-c3cncnc3)c(F)c2)ccc1CN1CC[C@H](C(=O)O)C1` [Compound 71, (S, E)-1-(2-ethyl-4-(1-(((3-fluoro-4-(pyrimidin-5-yl)benzyl)oxy)imino)ethyl)benzyl)pyrrolidine-3-carboxylic acid], the EC50 in test [1] was > 10 µM.

As for `CCc1cc(/C(C)=N/OCc2ccc(-c3cnsc3)cc2)ccc1CN1CC[C@H](C(=O)O)C1` [Compound 74], in test [1], the EC50 was > 10 µM.

Take `CCc1cc(/C(C)=N/OCc2ccc(-c3ccns3)cc2)ccc1CN1CC[C@H](C(=O)O)C1` [Compound 75]: the EC50 in test [1] was > 10 µM. Still for that read-out and setting: as for `CCc1cc(/C(C)=N/OCc2ccc(-c3cnc(F)nc3)cc2F)ccc1CN1CC[C@H](C(=O)O)C1` [Compound 79, (S, E)-1-(2-ethyl-4-(1-(((2-fluoro-4-(2-fluoropyrimidin-5-yl)benzyl)oxy)imino)ethyl)benzyl)pyrrolidine-3-carboxylic acid], the figure is > 10 µM. As for `CCc1cc(/C(C)=N/OCc2ccc(-c3cncnc3)c(C)c2)ccc1CN1CCC(C(=O)O)CC1` [Compound 82, (E)-1-(2-ethyl-4-(1-(((3-methyl-4-(pyrimidin-5-yl)benzyl)oxy)imino)ethyl)benzyl)piperidine-4-carboxylic acid], the EC50 in test [1] is > 10 µM; in test [2], 42.7 ± 2.28 nM. Take `CCc1cc(/C(C)=N/OCc2ccc(-c3cncnc3C)c(C)c2)ccc1CN1CC[C@H](C(=O)O)C1` [Compound 83, (S, E)-1-(2-ethyl-4-(1-(((3-methyl-4-(4-methylpyrimidin-5-yl)benzyl)oxy)imino)ethyl)benzyl)pyrrolidine-3-carboxylic acid]: the EC50 in test [1] is > 10 µM. For the compound `CCc1cc(/C(C)=N/OCc2ccc(-c3ccnnc3)c(C)c2)ccc1CN1CC[C@H](C(=O)O)C1` [Compound 84, (S, E)-1-(2-ethyl-4-(1-(((3-methyl-4-(pyridazin-4-yl)benzyl)oxy)imino)ethyl)benzyl)pyrrolidine-3-carboxylic acid], the half-maximal effective concentration (EC50) in test [1] is > 10 µM. As for `CCc1cc(/C(C)=N/OCc2c(F)cc(-c3ccc(F)nc3)cc2F)ccc1CN1CC[C@H](C(=O)O)C1` [Compound 86, (S, E)-1-(2-ethyl-4-(1-(((2,6-difluoro-4-(6-fluoropyridin-3-yl)benzyl)oxy)imino)ethyl)benzyl)pyrrolidine-3-carboxylic acid], the half-maximal effective concentration (EC50) in test [1] was > 10 µM. On to `CCc1cc(/C(C)=N/OCc2ccc(-c3cnc(F)cn3)cc2F)ccc1CN1CC[C@H](C(=O)O)C1` [Compound 87, (S, E)-1-(2-ethyl-4-(1-(((2-fluoro-4-(5-fluoropyrazin-2-yl)benzyl)oxy)imino)ethyl)benzyl)pyrrolidine-3-carboxylic acid], for which the half-maximal effective concentration (EC50) in test [1] is > 10 µM; in test [2], 17.4 ± 0.39 nM.
